Data: US9073916B2, “Prodrug forms of kinase inhibitors and their use in therapy” (AUCKLAND UNISERVICES LIMITED, priority 2009, dated 2015)
Like-named read-outs stand apart in the source and are kept apart here.

Experiments:
erbB1 = erbB1 (Homo sapiens, UniProt P00533); assay: Inhibition of erbB1 autophosphorylation in EGF-stimulated intact A431 cells (Western blot)
H1975 xenografts = assay: In vivo efficacy in H1975 xenografts; design: species or system mice; details: H1975 xenografts, q3dx4 at respective MTD, IP
Description: Specific pathogen-free homozygous female NIH-III nude mice (Charles River Laboratories, Wilmington, Mass.) were inoculated subcutaneously with a single cell suspension of H1975 cells (5×10^6 cells/100 μL; right flank). When H1975 tumour xenografts were established (typically 8-12 days) mice were randomized to treatment groups. All compounds were prepared in lactate buffer (pH4). Mice were dosed by intraperitoneal injection (0.01-0.03 ml/g) using the stated schedules and dose levels. For growth delay experiments mice were randomized to treatment and tumor volume [π(length×width^2)/6] and body weight were measured daily following treatment. […] Differences in RTV^4 were tested for statistical difference by Mann Whitney U test using SigmaStat v3.5.

A431 cells = assay: Cellular growth inhibition (sulforhodamine B); details: for IC50: Homo sapiens
SKOV3 cells = assay: Cellular growth inhibition (sulforhodamine B); format: cell-based, Human; details: Table 9; for IC50: Homo sapiens, SK-OV-3
Description: Human A431, H1975 and SKOV3 carcinoma cells in log phase exponential growth in alpha minimal essential media (αMEM) containing 5% fetal bovine serum (FBS), were harvested by trypsinisation (1× trypsin/EDTA, Gibco Brl), counted, and seeded into 96 well plates (Nunc) at cell densities ranging from 800-1500 cells/well. Half of the cell samples were seeded into plates that were pre-equilibrated and held in an anoxic environment (90% N2, 5% H2, 5% CO2, 37° C.; Anaerobic chamber, Coy Laboratory Products). […] At the end of this period the anoxic plates were recovered from the anaerobic camber and held under normoxia in a standard CO2 incubator (37° C.) for 20 hours. All plates were washed free of compound and cells were allowed to proliferate for a further 4 days in αMEM containing 5% FBS+antibiotics. Cells were fixed in trichloroacteic acid (30 min), washed and stained with sulforhodamine B (SRB, 60 min) prior to washing in acidified water. SRB was solubilised and absorption read at 450 nm to calculate cell densities. Inhibition of proliferation was calculated relative to untreated control wells.

H1975 cells = assay: Cellular growth inhibition (sulforhodamine B); format: cell-based, Human; details: Table 9; for IC50: Homo sapiens, NCI-H1975
[1] = Chemical stability by HPLC; details: HPLC after 24 h at 37° C.

Chain of erbB1 (P00533 25-1210): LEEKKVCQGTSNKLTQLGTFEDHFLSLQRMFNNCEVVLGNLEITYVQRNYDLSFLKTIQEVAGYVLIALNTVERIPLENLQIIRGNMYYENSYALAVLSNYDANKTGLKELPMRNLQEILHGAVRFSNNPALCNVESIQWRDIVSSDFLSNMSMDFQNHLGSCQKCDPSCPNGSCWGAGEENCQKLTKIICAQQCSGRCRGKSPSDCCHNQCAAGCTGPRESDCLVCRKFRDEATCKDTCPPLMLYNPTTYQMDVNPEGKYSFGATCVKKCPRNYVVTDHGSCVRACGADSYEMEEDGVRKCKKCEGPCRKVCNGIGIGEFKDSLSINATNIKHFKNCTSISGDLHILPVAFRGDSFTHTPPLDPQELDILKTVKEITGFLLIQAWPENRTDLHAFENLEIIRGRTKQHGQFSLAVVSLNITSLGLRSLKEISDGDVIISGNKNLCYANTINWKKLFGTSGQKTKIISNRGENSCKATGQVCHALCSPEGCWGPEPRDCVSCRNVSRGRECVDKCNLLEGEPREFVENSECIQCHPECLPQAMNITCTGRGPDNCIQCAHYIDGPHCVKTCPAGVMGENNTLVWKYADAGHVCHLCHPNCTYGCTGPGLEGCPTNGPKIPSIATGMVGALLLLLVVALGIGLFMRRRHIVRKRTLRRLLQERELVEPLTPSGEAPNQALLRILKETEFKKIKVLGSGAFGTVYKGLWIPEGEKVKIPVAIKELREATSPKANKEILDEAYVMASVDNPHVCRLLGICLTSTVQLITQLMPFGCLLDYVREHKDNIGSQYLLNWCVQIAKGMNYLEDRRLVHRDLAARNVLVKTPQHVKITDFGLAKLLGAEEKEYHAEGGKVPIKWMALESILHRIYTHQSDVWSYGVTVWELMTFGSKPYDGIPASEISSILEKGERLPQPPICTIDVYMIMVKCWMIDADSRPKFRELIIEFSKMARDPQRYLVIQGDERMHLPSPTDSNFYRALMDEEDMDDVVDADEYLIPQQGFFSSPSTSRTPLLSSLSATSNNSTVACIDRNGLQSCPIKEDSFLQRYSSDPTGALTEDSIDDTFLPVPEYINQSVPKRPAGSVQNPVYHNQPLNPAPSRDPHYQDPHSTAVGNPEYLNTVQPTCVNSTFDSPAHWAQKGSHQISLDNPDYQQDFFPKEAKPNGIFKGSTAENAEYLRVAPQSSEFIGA

SMILES: Cn1cnc([N+](=O)[O-])c1C[N+](C)(C)C/C=C/C(=O)Nc1cc2c(Nc3ccc(F)c(C(F)(F)F)c3)ncnc2cn1 [Compound 50, (2E)-4-({4-[4-fluoro-3-(trifluoromethyl)anilino]pyrido[3,4-d]pyrimidin-6-yl}amino)-N,N-dimethyl-N-[(1-methyl-4-nitro-1H-imidazol-5-yl)methyl]-4-oxo-2-buten-1-ammonium bromide]
- IC50 (erbB1): 0.969 µM
- Deact. erbB1 (fold reduction in cellular inhibition relative to the parent kinase inhibitor) (erbB1; Table 8, A431 cells): 121 fold
- tumour growth inhibition (TGI) (H1975 xenografts): 114%
- IC50 (A431 cells; A-431, 4 h, read-out: Cellular Growth Inhibition IC50 A431 Anoxic): 0.25 µM
- IC50 (A431 cells; A-431, 24 h, read-out: Cellular Growth Inhibition IC50 A431 Oxic): 15.3 µM
- A431 Deact. (A431 cells; Table 9): 64 fold
- A431 HCR (A431 cells; Table 9): 65.8 fold
- IC50 (SKOV3 cells; 24 hour exposure oxic, read-out: Cellular Growth Inhibition IC50 SKOV3 Oxic): 125 µM
- IC50 (SKOV3 cells; first 4 hours anoxic, read-out: Cellular Growth Inhibition IC50 SKOV3 Anoxic): 4.78 µM
- SKOV3 Deact. (SKOV3 cells): 126 fold
- SKOV3 HCR (SKOV3 cells): 28.7 fold
- solubility (physchem; aqueous buffer): 72 µM
- solubility (physchem; water): > 1300 µM
- IC50 (H1975 cells; 24 hour exposure oxic, read-out: Cellular Growth Inhibition IC50 H1975 Oxic): 120 µM
- IC50 (H1975 cells; first 4 hours anoxic, read-out: Cellular Growth Inhibition IC50 H1975 Anoxic): 3.78 µM
- H1975 Deact. (H1975 cells): 70 fold
- H1975 HCR (H1975 cells): 43.5 fold
- Stability PBS (percentage parent remaining) [1]: 88%
- Stability Water (percentage parent remaining) [1]: 99%
- Stability α-MEM + FCS (5%) (percentage parent remaining) [1]: 64%
